Source: US20210087248A1, “MODIFIED FIBROBLAST GROWTH FACTOR 1 (FGF-1) POLYPEPTIDES WITH INCREASED BINDING AFFINITY FOR HEPARIN AND ASSOCIATED METHODS” (Florida State University Research Foundation, Inc., priority 2014, published 2021)

Columns and labels:
Test in all cases: Heparin affinity study with isothermal titration calorimetry (ITC), sucrose octasulfate titration
Format in all cases: binding
Settings in all cases: 25 °C
[1] = target: T1, human FGF-1 wild-type, 140 amino acid form, N-terminal six His tag (hisFGF wild-type), SEQ ID NO: 1 (Homo sapiens, UniProt P05230)
T1 construct: six His tag (N); made in house; host or cells: pET21a(+) vector; E. coli BL21(DE3) is stated for the mutants, inferred for the wild type

[2] = target: human FGF-1 wild-type, no histag (no histag FGF wild-type), SEQ ID NO: 1 (Homo sapiens, UniProt P05230)
[3] = target: T2, human FGF-1 variant S116K (Ser116Lys), N-terminal six His tag (hisFGF S116K), SEQ ID NO: 3 (Homo sapiens, UniProt P05230, S131K)
T2 construct: six His tag (N); made in house; host or cells: E. coli BL21(DE3), pET21a (+)
Source text: (§1) A codon-optimized synthetic gene encoding 140 amino acids form of human FGF-1 (SEQ ID NO: 1) with an N-terminal six His tag was cloned into the pET21a (+) expression vector. The His tag has shown no influence upon stability, heparin affinity and mitogenic activity. Residue Ser116 inside of the heparin binding site of FGF-1 was mutated to Arginine (SEQ ID NO: 2) and Lysine (SEQ ID NO: 3) individually to increase potential ionic interactions with the sulfonate groups in HSGAG. This was achieved using a QUICKCHANGE site-directed mutagenesis protocol.
(§2) Each mutation was confirmed by DNA sequencing. The pET21a (+)/BL21(DE3) E. coli host expression system was used to express the FGF-1 heparin affinity mutants. The expressed polypeptide was purified via sequential nickel-nitrilotriacetic acid (Ni-NTA) column (Qiagen) and heparin Sepharose resin (GE Life Sciences, Pittsburgh Pa.). Previous studies of wild-type FGF-1 have shown that the above purification procedure results in protein >99% pure and appropriate for all biophysical studies.
(§3) Purified modified FGF-1 samples of SEQ ID NOs: 2 and 3 were dialyzed into 20 mM N-(2-acetamido) iminodiacetic acid (ADA), 100 mM NaCl, pH 7.4 for an ITC study. An iTC200 microcalorimeter (MicroCal) was used for data collection. […] The ITC running parameters were: 31 injections; first injection volume 0.5 μl and the rest of the injections 1 μl; temperature 25° C.; reference power 5. The titration curve after baseline subtraction was fitted with a single ligand-binding site model by manufacturer's software (MicroCal Origin). At least three independent trials were collected for each modified FGF-1 samples.

[4] = target: T3, human FGF-1 variant S116R (Ser116Arg), N-terminal six His tag (hisFGF S116R), SEQ ID NO: 2 (Homo sapiens, UniProt P05230, S131R)
T3 construct: six His tag (N); made in house; host or cells: E. coli BL21(DE3), pET21a (+)
Source text: as §1, §2, §3

[5] = single ligand-binding site model

T3 sequence (P05230 16-155 S131R): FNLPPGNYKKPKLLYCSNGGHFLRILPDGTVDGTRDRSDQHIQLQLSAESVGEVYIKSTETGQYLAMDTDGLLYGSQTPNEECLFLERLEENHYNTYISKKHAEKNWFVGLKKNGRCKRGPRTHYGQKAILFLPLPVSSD
T1 sequence (P05230 16-155): as the sequence (P05230 16-155 S131R) above, with R116S counted along it
Chain of human FGF-1 wild-type, no histag (no histag FGF wild-type), SEQ ID NO: 1 (P05230 16-155 limits assumed): as the sequence (P05230 16-155 S131R) above, with R116S counted along it
T2 sequence (P05230 16-155 S131K): as the sequence (P05230 16-155 S131R) above, with R116K counted along it

O=S(=O)(O)OC[C@H]1O[C@@](COS(=O)(=O)O)(O[C@H]2O[C@H](COS(=O)(=O)O)[C@@H](OS(=O)(=O)O)[C@H](OS(=O)(=O)O)[C@H]2OS(=O)(=O)O)[C@@H](OS(=O)(=O)O)[C@@H]1OS(=O)(=O)O [sucrose octasulfate]
Kd ([1]; 20 mM ADA, 100 mM NaCl, pH 7.4): 3.94 ± 0.19 µM
ΔH ([1]; pH 7.4): (−7506) ± 95 cal/mol
ΔS ([1]; pH 7.4): (−0.44) ± 0.23 cal/mol/deg
N (site) [1, 5]: 0.917 ± 0.050
Kd ([2]; 20 mM ADA, 100 mM NaCl, pH 7.4): 3.85 ± 0.09 µM
ΔH ([2]; pH 7.4): (−6963) ± 65 cal/mol
ΔS ([2]; pH 7.4): 1.42 ± 0.18 cal/mol/deg
N (site) [2, 5]: 0.980 ± 0.035
Kd ([3]; 20 mM ADA, 100 mM NaCl, pH 7.4): 3.1 ± 0.47 µM
ΔH ([3]; pH 7.4): (−3339) ± 57 cal/mol
ΔS ([3]; pH 7.4): (−6.42) ± 3.04 cal/mol/deg
N (site) [3, 5]: 1.012 ± 0.014
Kd ([4]; 20 mM ADA, 100 mM NaCl, pH 7.4): 2.46 ± 0.25 µM
ΔH ([4]; pH 7.4): (−7081) ± 217 cal/mol
ΔS ([4]; pH 7.4): 1.84 ± 0.92 cal/mol/deg
N (site) [4, 5]: 0.942 ± 0.036
